Data published in ChEMBL document CHEMBL1201862, “PubChem BioAssay data set” (2004).
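Step 1: Grow cells in 96-well plates. Step 2: Expose to compound for 48 hours at 5 concentrations. Step 3: Interpolate endpoints linearly; if unreached, use highest concentration. GI50 = concentration required for 50% inhibition of growth.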 Calls of active or inactive are those of the source. No stated cut-off is given here; in the data, active = GI50 up to about 1.1 µM and inactive = higher.

Tests used:
Experiment in all cases: DTP human tumour cell line panel, 48 h
DLD-1 = system: DLD-1
DMS-114 = system: DMS-114
HOP-18 = system: HOP-18
LXFL 529 = system: LXFL 529
M19-MEL = system: M19-MEL
RXF 631 = system: RXF 631
SNB-78 = system: SNB-78
XF498 = system: XF498
KM-20L2 = system: KM-20L2

`CN(C)c1ccc2c(c1)C(=O)N(OS(=O)(=O)c1ccc([N+](=O)[O-])cc1)C2=O` was tested, and the GI50 (DLD-1) was 24 µM (inactive), the GI50 (DMS-114) was > 10 µM (inactive) and the GI50 (HOP-18) was > 100 µM (inactive). For the same compound, the GI50 (LXFL 529) was 17.9 µM (inactive), the GI50 (M19-MEL) was 19 µM (inactive) and the GI50 (RXF 631) was 22.3 µM (inactive). For the same compound, the GI50 (SNB-78) was 26.7 µM (inactive) and the GI50 (XF498) was 16.7 µM (inactive).

`O=C(c1nc2ccc(Cl)cc2[nH]c1=O)C(O)c1ccco1` (stereo not drawn) was tested, and the GI50 (DLD-1) was > 100 µM (inactive), the GI50 (DMS-114) was 4.91 µM (inactive) and the GI50 (HOP-18) was > 100 µM (inactive). The GI50 (KM-20L2) was 24.5 µM (inactive), the GI50 (LXFL 529) was 42.9 µM (inactive) and the GI50 (M19-MEL) was > 100 µM (inactive). For the same compound, the GI50 (RXF 631) was 6.04 µM (inactive).

For `S=C1OC2C3C4CC5C3C(O1)C1C5C4C21` (stereo not drawn), the GI50 (DLD-1) was > 100 µM (inactive), the GI50 (DMS-114) was 45.6 µM (inactive) and the GI50 (HOP-18) was > 100 µM (inactive). The GI50 (KM-20L2) was > 100 µM (inactive), the GI50 (LXFL 529) was > 100 µM (inactive) and the GI50 (M19-MEL) was > 100 µM (inactive). For the same compound, the GI50 (SNB-78) was > 100 µM (inactive).

In the case of `O=C(c1ccc(Cl)cc1)c1ccc(OCCCOc2ccc(C(=O)c3ccc(Cl)cc3)cc2)cc1`, the GI50 (DLD-1) is reported as > 100 µM (inactive), the GI50 (DMS-114) is reported as > 100 µM (inactive) and the GI50 (KM-20L2) is reported as > 100 µM (inactive). For the same compound, the GI50 (LXFL 529) was > 100 µM (inactive), the GI50 (M19-MEL) was > 100 µM (inactive) and the GI50 (XF498) was > 100 µM (inactive).

In the case of `N#Cc1c(-c2ccco2)cc(-c2ccc(N)cc2)[nH]c1=O`, the GI50 (DLD-1) is reported as > 100 µM (inactive), the GI50 (DMS-114) is reported as > 100 µM (inactive) and the GI50 (HOP-18) is reported as > 100 µM (inactive). For the same compound, the GI50 (KM-20L2) was > 100 µM (inactive), the GI50 (LXFL 529) was > 100 µM (inactive) and the GI50 (RXF 631) was > 100 µM (inactive).

In the case of `C=C=C(C(=O)OC)[S+]([O-])c1ccc([N+](=O)[O-])cc1[N+](=O)[O-]` (stereo not drawn), the GI50 (DLD-1) is reported as 16.2 µM (inactive), the GI50 (DMS-114) is reported as 21 µM (inactive) and the GI50 (HOP-18) is reported as 44.2 µM (inactive). For the same compound, the GI50 (KM-20L2) was 26.5 µM (inactive), the GI50 (LXFL 529) was 16.8 µM (inactive) and the GI50 (M19-MEL) was 25.4 µM (inactive). For the same compound, the GI50 (RXF 631) was 42 µM (inactive) and the GI50 (XF498) was 39.1 µM (inactive).

`CC1(Cl)CC2OC3(Br)C=CC(C)(O)C2(CC1Br)C3(C)C` (stereo not drawn) was tested, and the GI50 (DLD-1) was > 100 µM (inactive), the GI50 (DMS-114) was > 100 µM (inactive) and the GI50 (HOP-18) was > 100 µM (inactive). For the same compound, the GI50 (KM-20L2) was > 100 µM (inactive), the GI50 (LXFL 529) was > 100 µM (inactive) and the GI50 (M19-MEL) was > 100 µM (inactive). For the same compound, the GI50 (SNB-78) was > 100 µM (inactive).

In the case of `COc1ccc(C(=O)NCCC2=CCCCC2)cc1`, the GI50 (DLD-1) is reported as > 100 µM (inactive), the GI50 (DMS-114) is reported as > 100 µM (inactive) and the GI50 (HOP-18) is reported as > 100 µM (inactive). For the same compound, the GI50 (KM-20L2) was > 100 µM (inactive), the GI50 (M19-MEL) was > 100 µM (inactive) and the GI50 (SNB-78) was > 100 µM (inactive). For the same compound, the GI50 (XF498) was > 100 µM (inactive).

With `O=C(O)CSc1nnc(-c2ccco2)[nH]1` the GI50 (DLD-1) was > 100 µM (inactive), the GI50 (KM-20L2) was > 100 µM (inactive) and the GI50 (LXFL 529) was > 100 µM (inactive). The GI50 (M19-MEL) was > 100 µM (inactive), the GI50 (RXF 631) was > 100 µM (inactive) and the GI50 (SNB-78) was > 100 µM (inactive). For the same compound, the GI50 (XF498) was > 100 µM (inactive).

For `O=C(O)/C=C\C(=O)c1ccc(Cl)cc1`, the GI50 (DLD-1) was 35.2 µM (inactive), the GI50 (DMS-114) was 21.4 µM (inactive) and the GI50 (HOP-18) was > 69.2 µM (inactive). The GI50 (KM-20L2) was 36.7 µM (inactive), the GI50 (LXFL 529) was 21.8 µM (inactive) and the GI50 (M19-MEL) was 24.3 µM (inactive). For the same compound, the GI50 (RXF 631) was > 100 µM (inactive), the GI50 (SNB-78) was 33.7 µM (inactive) and the GI50 (XF498) was 27.7 µM (inactive).

With `COc1ccc(O)c(C(=O)CCC(=O)O)c1` the GI50 (DLD-1) was > 100 µM (inactive), the GI50 (DMS-114) was > 100 µM (inactive) and the GI50 (LXFL 529) was > 100 µM (inactive). The GI50 (M19-MEL) was > 100 µM (inactive), the GI50 (RXF 631) was > 100 µM (inactive) and the GI50 (SNB-78) was > 100 µM (inactive). The GI50 (XF498) was > 100 µM (inactive).

For `COc1ccc(N2C(=O)[C@H]3[C@H]4CC(C(C)(C)C)CC[C@H]4c4c(n(C)c5ccccc45)[C@H]3C2=O)cc1` (stereo partly drawn), the GI50 (DLD-1) was < 0.01 µM (active), the GI50 (DMS-114) was > 100 µM (inactive) and the GI50 (HOP-18) was > 100 µM (inactive). For the same compound, the GI50 (LXFL 529) was > 100 µM (inactive), the GI50 (M19-MEL) was < 0.01 µM (active) and the GI50 (XF498) was > 100 µM (inactive).

`COCOCCCCCO[Si](C)(C)C(C)(C)C` was tested, and the GI50 (DLD-1) was 31.6 µM (inactive), the GI50 (DMS-114) was 17.5 µM (inactive) and the GI50 (HOP-18) was 30.8 µM (inactive). The GI50 (KM-20L2) was 22.8 µM (inactive), the GI50 (LXFL 529) was 26.9 µM (inactive) and the GI50 (M19-MEL) was 28.7 µM (inactive). For the same compound, the GI50 (RXF 631) was 19.4 µM (inactive), the GI50 (SNB-78) was 22.8 µM (inactive) and the GI50 (XF498) was 15.7 µM (inactive).

`O=C(Nc1ccc(Br)cc1)C(=O)C(C(=O)c1ccccc1F)C1OC(=O)c2ccccc21` (stereo not drawn) was tested, and the GI50 (DLD-1) was 26.2 µM (inactive), the GI50 (DMS-114) was 14 µM (inactive) and the GI50 (HOP-18) was 26.7 µM (inactive). For the same compound, the GI50 (KM-20L2) was 40.1 µM (inactive), the GI50 (LXFL 529) was 23.1 µM (inactive) and the GI50 (M19-MEL) was 17.2 µM (inactive). The GI50 (RXF 631) was 34.8 µM (inactive) and the GI50 (SNB-78) was 27.8 µM (inactive).

`Cc1cc2c3ccccc3n(C)c2c2c1C(=O)C=CC2=O` was tested, and the GI50 (DLD-1) was 12.7 µM (inactive), the GI50 (DMS-114) was 6.05 µM (inactive) and the GI50 (LXFL 529) was 3.99 µM (inactive). For the same compound, the GI50 (M19-MEL) was 18.2 µM (inactive), the GI50 (SNB-78) was 17.4 µM (inactive) and the GI50 (XF498) was 16.3 µM (inactive).
